The record followed here is US10219516B2, “Molecules having pesticidal utility, and intermediates, compositions, and processes, related thereto” (priority 2015, dated 2019).

Type in all cases: in vivo
For test [1], the system named is Beet Armyworm (Spodoptera exigua, LAPHEG). The experiment in a line: Bioassay on Beet Armyworm (BAW), 128-well diet tray assay. The settings on record: Species BAW (Beet Armyworm), read-out: BAW (Biological Results, rating). In a few lines:
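Second instar larvae were exposed to diet treated at 50 μg/cm^2 for five to seven days at 25° C.; mortality was averaged over eight wells.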

For test [2], the system named is Cabbage Looper (Trichoplusia ni, TRIPNI). The experiment in a line: Bioassay on Cabbage Looper (CL), 128-well diet tray assay. The following applies: Trichoplusia ni; Species CL (Cabbage Looper); read-out: CL (Biological Results, rating). The procedure, abridged: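 Mortality of second instar larvae exposed to diet coated with 50 μg/cm^2 compound (acetone-water 90:10 vehicle, dried); 25° C., 5–7 days.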

For test [3], the system named is Yellow Fever Mosquito (Aedes aegypti, AEDSAE). Put plainly: Bioassay on Yellow Fever Mosquito (YFM), 96-well plate larval assay. The settings on record: Species YFM (Yellow Fever Mosquito). In a few lines: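 Compound stocks at 4000 ppm in DMSO were diluted with 90:10 water/acetone, and 15 μL aliquots were dispensed into six replicate plates. About 1-day-old larvae in liver-powder water were added per well. Plates were covered and held at room temperature for 3 days before each well was scored for mortality.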

Consider `CNc1ccc(NC(=O)c2cc(NC(=O)[C@H]3[C@H](c4cc(Cl)cc(Cl)c4)C3(Cl)Cl)ccc2Cl)cc1C` (relative stereo) [F206, trans-2-Chloro-5-(2,2-dichloro-3-(3,5-dichlorophenyl)cyclopropane-1-carboxamido)-N-(3-methyl-4-(methylamino)phenyl)benzamide], for which the pest or weed control at 50 µg/cm2 in test [1] and in test [2] was 50 to 100% throughout. The “YFM (Biological Results, rating)” value in test [3] is reported as “A (80-100)”.

As to `O=C(Nc1ccc(F)cc1)c1cc(NC(=O)[C@H]2[C@H](c3cc(Cl)cc(Cl)c3)C2(Cl)Cl)cc(Cl)c1Cl` (relative stereo) [F216, trans-2,3-Dichloro-5-(2,2-dichloro-3-(3,5-dichlorophenyl)cyclopropane-1-carboxamido)-N-(4-fluorophenyl)benzamide], the pest or weed control at 50 µg/cm2 in test [1] and in test [2] was 50 to 100% each time. The “YFM (Biological Results, rating)” value in test [3] is listed as “B (More than 0-Less than 80)”.

Consider `O=C(Nc1ccc(-n2ccnn2)cc1)c1cc(NC(=O)[C@H]2[C@H](c3cc(Cl)cc(Cl)c3)C2(Cl)Cl)ccc1Cl` (relative stereo) [F217, trans-N-(4-(1H-1,2,3-Triazol-1-yl)phenyl)-2-chloro-5-(2,2-dichloro-3-(3,5-dichlorophenyl)cyclopropane-1-carboxamido)benzamide], for which the pest or weed control at 50 µg/cm2 in test [1] and in test [2] was 50 to 100% throughout. Moreover, the “YFM (Biological Results, rating)” value in test [3] is “B (More than 0-Less than 80)”.

For `O=C(Nc1ncc(F)cn1)c1cc(NC(=O)[C@H]2[C@H](c3cc(Cl)cc(Cl)c3)C2(Cl)Cl)ccc1Cl` (relative stereo) [F222, trans-2-Chloro-5-(2,2-dichloro-3-(3,5-dichlorophenyl)cyclopropane-1-carboxamido)-N-(5-fluoropyrimidin-2-yl)benzamide], the pest or weed control at 50 µg/cm2 in test [1] and in test [2] was 50 to 100% each time. Also, in test [3], the “YFM (Biological Results, rating)” value was “A (80-100)”.

In the case of `CNc1ccc(NC(=O)c2cc(NC(=O)[C@H]3[C@H](c4cc(Cl)c(Cl)c(Cl)c4)C3(Cl)Cl)ccc2Cl)c(C)c1` (relative stereo) [F223, trans-2-Chloro-5-(2,2-dichloro-3-(3,4,5-trichlorophenyl)cyclopropane-1-carboxamido)-N-(2-methyl-4-(methylamino)phenyl)benzamide], the pest or weed control at 50 µg/cm2 in test [1] and in test [2] was 50 to 100% each time. The “YFM (Biological Results, rating)” value in test [3] is given as “A (80-100)”.

Regarding `CNc1ccc(NC(=O)c2cc(NC(=O)[C@H]3[C@H](c4ccc(F)c(Cl)c4)C3(Cl)Cl)ccc2Cl)c(C)c1` (relative stereo) [F224, trans-2-Chloro-5-(2,2-dichloro-3-(3-chloro-4-fluorophenyl)cyclopropane-1-carboxamido)-N-(2-methyl-4-(methylamino)phenyl)benzamide], the pest or weed control at 50 µg/cm2 in test [1] and in test [2] was 50 to 100% throughout. Further, the “YFM (Biological Results, rating)” value in test [3] is listed as “A (80-100)”.

In the case of `CNc1ccc(N(C)C(=O)c2cc(NC(=O)[C@H]3[C@H](c4cc(Cl)c(Cl)c(Cl)c4)C3(Cl)Cl)ccc2Cl)c(C)c1` (relative stereo) [F226, trans-2-Chloro-5-(2,2-dichloro-3-(3,4,5-trichlorophenyl)cyclopropane-1-carboxamido)-N-methyl-N-(2-methyl-4-(methylamino)phenyl)benzamide], the pest or weed control at 50 µg/cm2 in test [1] and in test [2] was 50 to 100% in each case. Besides, the “YFM (Biological Results, rating)” value in test [3] was “A (80-100)”.

For the compound `Cc1cc(N)ccc1NC(=O)c1cc(NC(=O)[C@H]2[C@H](c3cc(Cl)c(Cl)c(Cl)c3)C2(Cl)Cl)ccc1Cl` (relative stereo) [F227, trans-N-(4-Amino-2-methylphenyl)-2-chloro-5-(2,2-dichloro-3-(3,4,5-trichlorophenyl)cyclopropane-1-carboxamido)benzamide], the pest or weed control at 50 µg/cm2 in test [1] and in test [2] was 50 to 100% in each case. The “YFM (Biological Results, rating)” value in test [3] is “A (80-100)”.

Consider `Cc1cc(N)ccc1NC(=O)c1cc(NC(=O)[C@H]2[C@H](c3ccc(F)c(Cl)c3)C2(Cl)Cl)ccc1Cl` (relative stereo) [F228, trans-N-(4-Amino-2-methylphenyl)-2-chloro-5-(2,2-dichloro-3-(3-chloro-4-fluorophenyl)cyclopropane-1-carboxamido)benzamide], for which the pest or weed control at 50 µg/cm2 in test [1] and in test [2] was 50 to 100% throughout. Also, the “YFM (Biological Results, rating)” value in test [3] is listed as “A (80-100)”.

In the case of `N#Cc1cc([N+](=O)[O-])ccc1NC(=O)c1cc(NC(=O)[C@H]2[C@H](c3cc(Cl)cc(Cl)c3)C2(Cl)Cl)ccc1Cl` (relative stereo) [F229, trans-2-chloro-N-(2-cyano-4-nitrophenyl)-5-(2,2-dichloro-3-(3,5-dichlorophenyl)cyclopropane-1-carboxamido)benzamide], the pest or weed control at 50 µg/cm2 in test [1] and in test [2] was 50 to 100% throughout. Also, the “YFM (Biological Results, rating)” value in test [3] is “A (80-100)”.

`Cc1ccc(C#N)c(NC(=O)c2cc(NC(=O)[C@H]3[C@H](c4cc(Cl)cc(Cl)c4)C3(Cl)Cl)ccc2Cl)c1` (relative stereo) [F230, 2-Chloro-N-(2-cyano-5-methylphenyl)-5-(trans-2,2-dichloro-3-(3,5-dichlorophenyl)cyclopropane-1-carboxamido)benzamide]: the pest or weed control at 50 µg/cm2 in test [1] and in test [2] was 50 to 100% in each case. The “YFM (Biological Results, rating)” value in test [3] was “A (80-100)”.

With `Cc1ccc(NC(=O)c2cc(NC(=O)[C@H]3[C@H](c4cc(Cl)cc(Cl)c4)C3(Cl)Cl)ccc2Cl)c([N+](=O)[O-])c1` (relative stereo) [F231, 2-Chloro-5-(trans-2,2-dichloro-3-(3,5-dichlorophenyl)cyclopropane-1-carboxamido)-N-(4-methyl-2-nitrophenyl)benzamide], the pest or weed control at 50 µg/cm2 in test [1] and in test [2] was 50 to 100% in each case. Also, in test [3], the “YFM (Biological Results, rating)” value was “A (80-100)”.

For `N#Cc1cc(C(F)(F)F)ccc1NC(=O)c1cc(NC(=O)[C@H]2[C@H](c3cc(Cl)cc(Cl)c3)C2(Cl)Cl)ccc1Cl` (relative stereo) [F232, 2-Chloro-N-(2-cyano-4-(trifluoromethyl)phenyl)-5-(trans-2,2-dichloro-3-(3,5-dichlorophenyl)cyclopropane-1-carboxamido)benzamide], the pest or weed control at 50 µg/cm2 in test [1] and in test [2] was 50 to 100% in each case. For the same compound, the “YFM (Biological Results, rating)” value in test [3] was “A (80-100)”.

On to `N#Cc1ccc(NC(=O)c2cc(NC(=O)[C@H]3[C@H](c4cc(Cl)cc(Cl)c4)C3(Cl)Cl)ccc2Cl)cc1F` (relative stereo) [F233, 2-Chloro-N-(4-cyano-3-fluorophenyl)-5-(trans-2,2-dichloro-3-(3,5-dichlorophenyl)cyclopropane-1-carboxamido)benzamide], for which the pest or weed control at 50 µg/cm2 in test [1] and in test [2] was 50 to 100% each time. Also, the “YFM (Biological Results, rating)” value in test [3] was “A (80-100)”.
